Measured values as given in US12648941B2, “Piperidine urea derivatives for use as inotropic agents” (Helsinn Healthcare SA, priority 2021, dated 2026).
“Also recorded” adds a separate entry of the source.

Legend:
[1] = test system: cardiomyocytes isolated from hearts of SHAM mice; assay: Cardiomyocyte contractility (fractional shortening, % FS), SHAM cardiomyocytes; format: cell-based, mouse
Method: (§1) Cardiomyocytes were isolated freshly from cardiac ventricles separately from SHAM and HF mice following the protocol developed by the Alliance for Cellular Signalling (AfCS Procedure Protocol ID PP00000125). From each of the 5 SHAM and 3 HF hearts a cell suspension was made and divided into 10 aliquots each, for a total of 50 aliquots from SHAM and 30 aliquots from HF hearts. These aliquots were treated with vehicle, AC01/HM01 or D-Lys3-GHPR-6+AC01/HM01 as stated and used for the subsequent physiological and biochemical experiments.
(§2) AC01/HM01 was suspended in phosphate buffer saline solution (PBS: in mM: NaCl 137, KCl 7, Na2HPO4 10, KH2PO4 […]) and diluted to obtain 3 different concentrations: 0.2, 0.5 or 1 μM in Tyrode solution. We used a concentration range within 0.2-1 μM to ensure that the receptor was activated. […] Prior to contractility and Ca^2+ signaling measurements and biochemical assays, cardiomyocyte suspensions from SHAM and HF hearts were randomized to 3 types of treatments: vehicle, AC01/HM01, or D-Lys3-GHPR-6+AC01/HM01. The treatment with different agents occurred for 15 minutes at room temperature. Some cell suspension aliquots were flash frozen in liquid N2 and stored at −80° C. for later biochemistry analyses. All the experiments were conducted blinded regarding the treatment of cardiomyocytes.
Fresh isolated cardiomyocytes were aliquoted in 1.5 mL tubes and incubated with a cell permeable form of the fluorescent Ca^2+ indicator Fluo-3 AM for approximately 20 minutes followed by washing for >5 min. The cells were plated on laminin coated glass bottom dishes (35 mm, Mattek, Ashland, MA, USA), and then mounted in a custom built perfusion/stimulation chamber. Cells were continuously perfused with O2/CO2 (95/5%) bubbled Tyrode solution with the following composition (in mM): NaCl 121, KCl 5.0, CaCl2 1.8, MgCl2 0.5, NaH2PO4 0.4, NaHCO3 24, EDTA 0.1, glucose 5.5, which represents the vehicle solution.
15 aliquots of cardiomyocyte suspension from SHAM and 9 aliquots from HF were randomized to different treatments: vehicle, AC01/HM01 (0.2, 0.5 or 1 μM) or pretreatment with D-Lys3-GHPR-6 (3 μM) followed by AC01/HM01 (1 μM). The cardiomyocytes were electrically stimulated to contract at 1 Hz with supra-threshold voltage using two platinum electrodes attached to the perfusion/stimulation chamber.
Line scan fluorescence images were acquired using a confocal microscope (Biorad; 40× oil immersion lenses). […] ImageJ software (open source software developed by NIH, Bethesda, USA) was used to quantify changes in fluorescence (Ca^2+ transients) and contractility of single cardiomyocytes.
The contractility of cardiomyocytes was measured as the percent of length shortening (fractional shortening; % FS). […]

[2] = test system: cardiomyocytes isolated from hearts of SHAM mice; assay: Intracellular Ca2+ transients (Fluo-3, confocal line scan); format: cell-based, mouse
Method: as §1, §2
Fresh isolated cardiomyocytes were aliquoted in 1.5 ml tubes and incubated with a cell permeable form of fluorescent Ca2+ indicator Fluo-3 AM followed by washing for >5 min. […] ImageJ software (open source software developed by NIH, Bethesda, USA) was used to quantify changes in fluorescence (Ca2+ transients) and contractility of single cardiomyocytes.
Ca^2+ transients were measured using a confocal microscope (Biorad) in line scan mode. […] The fluorescent signal (F/Fo) was calculated as the ratio between resting fluorescence before the start of the Ca^2+ transient (FO) and the peak fluorescence (F) of the Ca^2+ transient.

Protein kinase A (PKA) = assay: PKA activity assay in cardiomyocytes (ELISA-based kit); format: cell-based, mouse; details: isolated cardiomyocytes; 1 μM
Method: as §2
Elisa-based PKA kinase activity assay kit (ab139435, Abcam, Cambridge, UK) was employed to determine PKA activity in cardiomyocytes. Aliquots of frozen cardiomyocytes were thawed and mixed with a lysis buffer containing (mM) the following: 20 MOPS, 50 β-glycerolphosphate, 5 EGTA, 2 EDTA, 1 benzamidine, 1 sodium orthovanadate, 1% NP40, 1 DTT, complete protease inhibitor cocktail (Roche Diagnostics, West Sussex, UK) and phosphatase inhibitor cocktail 3 (Sigma, Gillingham, UK). Approximately 2 μg of protein of each sample were assayed according to the manufacturer's instructions 27.

[3] = Phase 1 single ascending dose study, urinary excretion; format: in vivo, human; details: 10 mg dose; urine collected 24 hours
Method: Blood samples for analytical assay of HM01 and the 3 major metabolites (M2, M6 and M9) were collected at pre-dose (within 60 minutes prior to drug administration), and at 0.25, 0.5, 1, 1.5, 2, 3, 4, 6, 8, 12, 16, 24, 30, 36, 48, 60 and 72 hours post dose (18 samples). Urine was collected for 24 hours after dosing. Blood and urine samples were analyzed for HM01 and its metabolites concentrations using validated LC-MS/MS methods.
Additional parameters were derived from urine, i.e., Ae(0-24), the amount of the parent drug and metabolites excreted in 24 h, and CLR, the renal clearance.

prolactin = assay: Phase 1 SAD pharmacodynamics, serum prolactin (ELISA); format: in vivo, human
Method: Blood samples for determination of growth hormone (GH), insulin-like growth factor-1 (IGF-1), adrenocorticotropic hormone (ACTH), prolactin, cortisol and aldosterone in serum at pre-dose and 0.5, 1, 2, 3, 4, 6 and 24 hours post-dose were collected by venous puncture. All biomarkers were determined using enzyme linked immunosorbent assays (ELISA). Simplified nutritional appetite questionnaire based on appetite assessments at Day −1 after dinner, and on Day 1 pre-dose, 1, 2, 4, 8, and 24 hours after dosing. Stool diary starting on Day 1 until discharge on Day 4.

fraction of the dose excreted in the urine [3]: Approximately 10%
SMILES: COc1ccc([C@H](C)NC(=O)N(C)[C@@H]2CCN(C)CC2(C)C)c(Cl)c1Cl.Cl [AC01/HM01, 1-[(1S)-1-(2,3-dichloro-4-methoxyphenyl)ethyl]-3-methyl-3-[(4R)-1-methyl-3,3-dimethyl-4-piperidyl]-urea]
contractility, fractional shortening (FS %) vs vehicle ([1]; 0.5 μM): considerable and statistically significant response
contractility, fractional shortening (FS %) vs vehicle ([1]; 1 μM): considerable and statistically significant response; also recorded: significant increase of contractility; also recorded: greatest contractile effect compared to vehicle; also recorded: positively responded
contractility, length fractional shortening (FS %), concentration dependence ([1]; 0.2, 0.5 and 1 μM vs vehicle, 1 Hz stimulation): increased in a dose-dependent manner; also recorded: dose-dependent increase
Ca2+ transient amplitude vs vehicle ([2]; 1 μM, with D-Lys 3 GHRP-6 pretreatment): did not have any impact on Ca^2+ transient amplitudes; also recorded: did not change the Ca^2+ transient amplitude
Ca2+ transient amplitude vs vehicle ([2]; 1 μM, without D-Lys3 pretreatment): did not have any impact on Ca^2+ transient amplitudes; also recorded: did not change the Ca^2+ transient amplitude
Ca2+ transient amplitude vs vehicle ([2]; all tested concentrations (0.2, 0.5, 1 μM)): no significant change in Ca^2+ transient amplitude; also recorded: did not cause alteration of Ca^2+ transient amplitudes
PKA activity vs vehicle (Protein kinase A (PKA)): decreased; also recorded: reduction of PKA activity
prolactin increase, comparison of doses (prolactin; 10 mg vs 1.0 mg): higher after 10 mg compared to 1.0 mg
concentrations of prolactin (prolactin; 1.0 and 10 mg HM01): rapidly increased above baseline values
